Earlier results on one compound are cited in patent publication US7232821B2, “(2-((2-alkoxy)-phenyl) -cyclopent-1enyl) aromatic carbo and heterocyclic acid and derivatives” (Glaxo Group Limited, priority 2002, dated 2007).

Data set [1] concerns rodent model of post-operative pain.
In data set [2] the test system is rat model of chronic constriction injury.

Regarding `Cc1cc(Cl)ccc1S(=O)(=O)NC[C@H]1C2CCC(CC2)[C@@H]1/C=C\CCCC(=O)O` [ONO-8711], in data set [1], the mechanical hyperalgesia entry was “inhibits mechanical hyperalgesia”. Also, the hyperalgesia and allodynia result in data set [2] was “reduces hyperalgesia and allodynia”.
